Tests used:
[1] = target: Serine/threonine-protein kinase PLK1 (Homo sapiens) (UniProt P53350); conditions: Compound concentration 1000.0 nM
[2] = target: Muscarinic acetylcholine receptor M5 (Homo sapiens) (UniProt P08912); conditions: Compound concentration 10.0 uM
[3] = target: Beta-1 adrenergic receptor (Homo sapiens) (UniProt P08588); conditions: Compound concentration 10.0 uM
[4] = target: D(1B) dopamine receptor (Homo sapiens) (UniProt P21918); conditions: Compound concentration 10.0 uM
[5] = target: Calcium/calmodulin-dependent protein kinase type 1 (Homo sapiens) (UniProt Q14012); conditions: Compound concentration 1000.0 nM
[6] = target: Protein kinase C epsilon type (Homo sapiens) (UniProt Q02156); conditions: Compound concentration 1000.0 nM
[7] = target: Proto-oncogene tyrosine-protein kinase ROS (Homo sapiens) (UniProt P08922); conditions: Compound concentration 1000.0 nM
[8] = target: Mitogen-activated protein kinase 4 (Homo sapiens) (UniProt P31152); conditions: Compound concentration 1000.0 nM
[9] = target: TGF-beta receptor type-2 (Homo sapiens) (UniProt P37173); conditions: Compound concentration 1000.0 nM
[10] = target: Serine/threonine-protein kinase LATS2 (Homo sapiens) (UniProt Q9NRM7); conditions: Compound concentration 1000.0 nM
[11] = target: Dual specificity protein kinase TTK (Homo sapiens) (UniProt P33981); conditions: Compound concentration 1000.0 nM
[12] = target: Mitotic checkpoint serine/threonine-protein kinase BUB1 (Homo sapiens) (UniProt O43683); conditions: Compound concentration 1000.0 nM
[13] = target: Non-receptor tyrosine-protein kinase TYK2 (Homo sapiens) (UniProt P29597); conditions: Compound concentration 1000.0 nM
[14] = system: Proto-oncogene tyrosine-protein kinase receptor Ret (Homo sapiens), P07949 [M918T]; conditions: Compound concentration 1000.0 nM
[15] = target: Eukaryotic translation initiation factor 2-alpha kinase 1 (Homo sapiens) (UniProt Q9BQI3); conditions: Compound concentration 1000.0 nM
Chain of Eukaryotic translation initiation factor 2-alpha kinase 1 (Homo sapiens) (Q9BQI3 whole entry): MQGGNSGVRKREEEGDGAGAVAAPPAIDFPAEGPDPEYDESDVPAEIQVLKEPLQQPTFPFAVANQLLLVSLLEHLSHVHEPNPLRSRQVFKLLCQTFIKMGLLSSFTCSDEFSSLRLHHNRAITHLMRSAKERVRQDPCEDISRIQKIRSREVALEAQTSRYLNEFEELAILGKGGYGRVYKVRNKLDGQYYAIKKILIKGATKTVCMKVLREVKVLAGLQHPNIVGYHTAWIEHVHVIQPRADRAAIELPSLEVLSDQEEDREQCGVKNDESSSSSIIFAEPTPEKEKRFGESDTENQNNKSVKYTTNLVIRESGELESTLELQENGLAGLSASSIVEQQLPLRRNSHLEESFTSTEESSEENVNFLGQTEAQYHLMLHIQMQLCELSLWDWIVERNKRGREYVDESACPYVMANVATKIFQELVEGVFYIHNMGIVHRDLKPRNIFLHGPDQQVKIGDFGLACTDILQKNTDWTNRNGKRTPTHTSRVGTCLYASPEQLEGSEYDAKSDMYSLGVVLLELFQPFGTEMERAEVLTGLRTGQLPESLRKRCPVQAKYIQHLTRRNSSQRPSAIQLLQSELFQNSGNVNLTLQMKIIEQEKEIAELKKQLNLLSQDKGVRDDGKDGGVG

[16] = target: Mitogen-activated protein kinase kinase kinase 3 (Homo sapiens) (UniProt Q99759); conditions: Compound concentration 1000.0 nM
Chain of Mitogen-activated protein kinase kinase kinase 3 (Homo sapiens) (Q99759 whole entry): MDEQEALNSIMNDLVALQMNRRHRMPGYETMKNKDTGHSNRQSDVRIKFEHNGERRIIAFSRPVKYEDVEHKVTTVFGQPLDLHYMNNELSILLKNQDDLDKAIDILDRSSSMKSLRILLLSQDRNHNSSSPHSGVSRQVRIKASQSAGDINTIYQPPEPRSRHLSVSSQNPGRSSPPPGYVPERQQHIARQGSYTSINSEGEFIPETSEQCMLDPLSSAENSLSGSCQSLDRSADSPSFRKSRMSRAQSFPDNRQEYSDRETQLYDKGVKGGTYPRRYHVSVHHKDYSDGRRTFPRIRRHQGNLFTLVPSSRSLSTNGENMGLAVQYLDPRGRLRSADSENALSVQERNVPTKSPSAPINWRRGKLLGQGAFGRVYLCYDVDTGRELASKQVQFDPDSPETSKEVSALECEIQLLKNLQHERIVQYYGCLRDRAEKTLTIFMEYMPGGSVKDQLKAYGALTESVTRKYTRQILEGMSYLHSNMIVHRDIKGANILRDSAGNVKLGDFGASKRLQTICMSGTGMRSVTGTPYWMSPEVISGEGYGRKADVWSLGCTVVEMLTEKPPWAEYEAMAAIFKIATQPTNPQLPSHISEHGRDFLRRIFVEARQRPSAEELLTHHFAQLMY

[17] = target: RAC-beta serine/threonine-protein kinase (Homo sapiens) (UniProt P31751); conditions: Compound concentration 1000.0 nM
[18] = target: Homeodomain-interacting protein kinase 4 (Homo sapiens) (UniProt Q8NE63); conditions: Compound concentration 1000.0 nM
Chain of Homeodomain-interacting protein kinase 4 (Homo sapiens) (Q8NE63 whole entry): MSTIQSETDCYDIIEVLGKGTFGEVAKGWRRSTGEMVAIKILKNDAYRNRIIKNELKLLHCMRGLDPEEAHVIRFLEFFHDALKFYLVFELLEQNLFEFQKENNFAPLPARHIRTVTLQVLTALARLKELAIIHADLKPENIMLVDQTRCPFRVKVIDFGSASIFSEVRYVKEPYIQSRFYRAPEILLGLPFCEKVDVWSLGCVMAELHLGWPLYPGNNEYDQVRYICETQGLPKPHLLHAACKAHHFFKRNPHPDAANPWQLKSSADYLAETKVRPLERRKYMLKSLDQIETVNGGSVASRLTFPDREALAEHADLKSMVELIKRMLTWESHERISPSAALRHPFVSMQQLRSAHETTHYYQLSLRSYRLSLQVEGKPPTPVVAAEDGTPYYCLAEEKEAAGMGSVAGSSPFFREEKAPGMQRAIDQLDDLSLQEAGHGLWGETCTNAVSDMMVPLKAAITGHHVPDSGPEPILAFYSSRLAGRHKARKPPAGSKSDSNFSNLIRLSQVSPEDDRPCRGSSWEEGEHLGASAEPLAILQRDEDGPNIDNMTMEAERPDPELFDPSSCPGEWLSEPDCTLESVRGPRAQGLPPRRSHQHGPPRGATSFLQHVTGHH

[19] = target: T1, Alpha-2A adrenergic receptor (Homo sapiens) (UniProt P08913); conditions: Compound concentration 10.0 uM
T1 sequence (whole entry): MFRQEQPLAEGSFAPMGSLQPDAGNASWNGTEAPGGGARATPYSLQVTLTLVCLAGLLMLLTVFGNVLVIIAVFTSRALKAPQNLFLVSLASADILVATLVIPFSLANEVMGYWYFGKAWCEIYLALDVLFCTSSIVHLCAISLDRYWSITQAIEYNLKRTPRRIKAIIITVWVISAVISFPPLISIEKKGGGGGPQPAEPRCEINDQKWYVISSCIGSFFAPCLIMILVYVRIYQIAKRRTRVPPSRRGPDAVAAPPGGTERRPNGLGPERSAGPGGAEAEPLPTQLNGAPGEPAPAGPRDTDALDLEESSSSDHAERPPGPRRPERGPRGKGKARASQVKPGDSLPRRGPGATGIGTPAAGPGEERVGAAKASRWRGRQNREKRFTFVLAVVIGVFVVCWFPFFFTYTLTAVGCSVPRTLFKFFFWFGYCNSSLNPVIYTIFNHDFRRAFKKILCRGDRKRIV

[20] = target: Ephrin type-A receptor 7 (Homo sapiens) (UniProt Q15375); conditions: Compound concentration 1000.0 nM
Chain of Ephrin type-A receptor 7 (Homo sapiens) (Q15375 28-998 limits assumed): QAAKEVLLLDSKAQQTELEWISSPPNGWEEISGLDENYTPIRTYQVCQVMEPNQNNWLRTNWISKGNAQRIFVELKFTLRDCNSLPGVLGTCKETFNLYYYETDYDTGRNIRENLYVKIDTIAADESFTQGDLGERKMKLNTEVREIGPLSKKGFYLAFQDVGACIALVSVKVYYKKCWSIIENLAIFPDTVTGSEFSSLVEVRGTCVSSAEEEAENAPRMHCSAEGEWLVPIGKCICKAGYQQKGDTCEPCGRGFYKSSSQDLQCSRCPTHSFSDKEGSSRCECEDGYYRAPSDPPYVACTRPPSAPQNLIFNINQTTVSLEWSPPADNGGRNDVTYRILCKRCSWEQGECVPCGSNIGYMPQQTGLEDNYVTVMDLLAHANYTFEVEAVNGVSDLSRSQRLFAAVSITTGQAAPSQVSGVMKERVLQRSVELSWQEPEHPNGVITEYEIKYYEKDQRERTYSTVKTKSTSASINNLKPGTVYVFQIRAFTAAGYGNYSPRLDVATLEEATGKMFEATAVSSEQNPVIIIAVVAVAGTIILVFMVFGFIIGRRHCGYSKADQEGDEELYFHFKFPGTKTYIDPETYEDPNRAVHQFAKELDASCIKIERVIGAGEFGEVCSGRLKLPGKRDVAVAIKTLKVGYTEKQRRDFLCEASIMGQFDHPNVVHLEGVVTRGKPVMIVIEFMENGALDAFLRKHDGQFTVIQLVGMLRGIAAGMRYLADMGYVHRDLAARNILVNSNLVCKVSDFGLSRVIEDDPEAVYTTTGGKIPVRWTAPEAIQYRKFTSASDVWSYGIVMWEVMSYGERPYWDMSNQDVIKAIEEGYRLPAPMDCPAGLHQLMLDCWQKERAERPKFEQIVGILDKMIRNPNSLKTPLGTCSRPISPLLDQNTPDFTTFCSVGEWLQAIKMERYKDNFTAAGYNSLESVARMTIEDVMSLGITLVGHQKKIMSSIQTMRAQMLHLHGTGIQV

[21] = target: Activin receptor type-2A (Homo sapiens) (UniProt P27037); conditions: Compound concentration 1000.0 nM
[22] = target: Phosphorylase b kinase gamma catalytic chain, skeletal muscle/heart isoform (Homo sapiens) (UniProt Q16816); conditions: Compound concentration 1000.0 nM
Chain of Phosphorylase b kinase gamma catalytic chain, skeletal muscle/heart isoform (Homo sapiens) (Q16816 whole entry, looked up, canonical isoform): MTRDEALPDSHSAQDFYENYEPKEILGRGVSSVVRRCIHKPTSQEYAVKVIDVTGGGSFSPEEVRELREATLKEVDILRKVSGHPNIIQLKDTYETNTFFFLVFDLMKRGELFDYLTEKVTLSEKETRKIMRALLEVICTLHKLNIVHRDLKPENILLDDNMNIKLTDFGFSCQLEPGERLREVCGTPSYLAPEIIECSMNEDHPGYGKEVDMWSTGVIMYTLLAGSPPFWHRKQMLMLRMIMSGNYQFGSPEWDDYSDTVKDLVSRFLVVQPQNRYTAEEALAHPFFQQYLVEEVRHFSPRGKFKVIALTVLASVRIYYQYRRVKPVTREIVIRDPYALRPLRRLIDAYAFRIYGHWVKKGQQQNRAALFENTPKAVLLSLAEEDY

[23] = target: Cyclin-dependent kinase 16 (Homo sapiens) (UniProt Q00536); conditions: Compound concentration 1000.0 nM
[24] = system: Epidermal growth factor receptor (Homo sapiens), P00533 [UNDEFINED MUTATION]; conditions: Compound concentration 1000.0 nM
[25] = target: Mitogen-activated protein kinase kinase kinase 10 (Homo sapiens) (UniProt Q02779); conditions: Compound concentration 1000.0 nM
[26] = target: Serine/threonine-protein kinase Nek3 (Homo sapiens) (UniProt P51956); conditions: Compound concentration 1000.0 nM
[27] = target: Serine/threonine-protein kinase 32B (Homo sapiens) (UniProt Q9NY57); conditions: Compound concentration 1000.0 nM
[28] = target: Transient receptor potential cation channel subfamily M member 6 (Homo sapiens) (UniProt Q9BX84); conditions: Compound concentration 1000.0 nM
[29] = target: Insulin receptor (Homo sapiens) (UniProt P06213); conditions: Compound concentration 1000.0 nM
[30] = system: ALK tyrosine kinase receptor (Homo sapiens), Q9UM73 [C1156Y]; conditions: Compound concentration 1000.0 nM
[31] = target: Proto-oncogene tyrosine-protein kinase receptor Ret (Homo sapiens) (UniProt P07949); conditions: Compound concentration 1000.0 nM
[32] = system: Tyrosine-protein kinase ABL1 (Homo sapiens), P00519 [T315I]; conditions: Compound concentration 1000.0 nM
[33] = target: STE20-like serine/threonine-protein kinase (Homo sapiens) (UniProt Q9H2G2); conditions: Compound concentration 1000.0 nM
[34] = target: Cyclin-dependent kinase 7 (Homo sapiens) (UniProt P50613); conditions: Compound concentration 1000.0 nM
[35] = target: Tyrosine-protein kinase Srms (Homo sapiens) (UniProt Q9H3Y6); conditions: Compound concentration 1000.0 nM
[36] = target: Casein kinase I isoform gamma-1 (Homo sapiens) (UniProt Q9HCP0); conditions: Compound concentration 1000.0 nM
[37] = target: Mast/stem cell growth factor receptor Kit (Homo sapiens) (UniProt P10721); conditions: Compound concentration 1000.0 nM
Chain of Mast/stem cell growth factor receptor Kit (Homo sapiens) (P10721 whole entry): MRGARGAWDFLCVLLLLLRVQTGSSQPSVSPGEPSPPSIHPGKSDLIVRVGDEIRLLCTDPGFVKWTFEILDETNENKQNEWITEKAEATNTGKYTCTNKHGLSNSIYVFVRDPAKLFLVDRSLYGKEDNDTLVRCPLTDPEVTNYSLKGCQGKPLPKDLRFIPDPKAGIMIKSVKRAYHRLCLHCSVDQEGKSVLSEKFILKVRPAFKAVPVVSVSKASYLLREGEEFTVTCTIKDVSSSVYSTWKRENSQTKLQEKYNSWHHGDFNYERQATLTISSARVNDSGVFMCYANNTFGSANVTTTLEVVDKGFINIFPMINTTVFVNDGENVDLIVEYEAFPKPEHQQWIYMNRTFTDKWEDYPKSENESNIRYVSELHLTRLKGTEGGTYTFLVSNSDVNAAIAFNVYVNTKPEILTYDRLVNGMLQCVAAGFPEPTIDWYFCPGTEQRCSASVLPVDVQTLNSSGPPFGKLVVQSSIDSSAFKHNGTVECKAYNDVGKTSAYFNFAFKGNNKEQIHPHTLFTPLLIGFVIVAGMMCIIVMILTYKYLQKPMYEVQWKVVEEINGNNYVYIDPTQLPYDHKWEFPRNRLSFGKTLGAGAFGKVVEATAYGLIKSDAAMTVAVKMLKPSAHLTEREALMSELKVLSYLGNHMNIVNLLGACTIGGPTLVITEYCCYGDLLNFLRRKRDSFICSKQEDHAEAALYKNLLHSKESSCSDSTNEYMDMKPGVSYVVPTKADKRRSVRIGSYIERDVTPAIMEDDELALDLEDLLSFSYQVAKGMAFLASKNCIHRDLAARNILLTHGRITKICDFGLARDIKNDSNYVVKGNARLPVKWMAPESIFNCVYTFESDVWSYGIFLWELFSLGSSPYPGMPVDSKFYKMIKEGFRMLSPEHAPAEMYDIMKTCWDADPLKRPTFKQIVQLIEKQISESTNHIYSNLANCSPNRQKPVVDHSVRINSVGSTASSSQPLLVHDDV

[38] = target: Ephrin type-A receptor 6 (Homo sapiens) (UniProt Q9UF33); conditions: Compound concentration 1000.0 nM
[39] = target: Wee1-like protein kinase 2 (Homo sapiens) (UniProt P0C1S8); conditions: Compound concentration 1000.0 nM

Chain of Muscarinic acetylcholine receptor M5 (Homo sapiens) (P08912 whole entry): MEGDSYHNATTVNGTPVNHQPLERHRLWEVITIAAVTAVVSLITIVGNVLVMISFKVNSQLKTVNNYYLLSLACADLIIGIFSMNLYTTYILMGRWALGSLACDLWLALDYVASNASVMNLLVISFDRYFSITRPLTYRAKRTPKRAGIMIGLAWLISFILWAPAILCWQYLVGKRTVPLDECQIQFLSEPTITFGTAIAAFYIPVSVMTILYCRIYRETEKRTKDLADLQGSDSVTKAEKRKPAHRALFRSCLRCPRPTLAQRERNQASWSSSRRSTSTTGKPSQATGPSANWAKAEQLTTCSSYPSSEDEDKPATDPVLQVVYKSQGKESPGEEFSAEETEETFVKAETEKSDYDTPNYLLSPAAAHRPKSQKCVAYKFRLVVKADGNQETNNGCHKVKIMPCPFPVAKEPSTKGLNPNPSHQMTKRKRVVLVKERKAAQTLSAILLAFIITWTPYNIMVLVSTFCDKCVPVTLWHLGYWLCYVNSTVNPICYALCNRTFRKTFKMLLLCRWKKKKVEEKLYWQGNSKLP

O=C(Nc1cnc(Oc2ccc(F)cc2)nc1)N1CCc2ncccc2[C@@H]1c1ccc(F)cc1 [BAY-899]
inactive: residual activity [1] 80% | inhibition [2] 12% | inhibition [3] 11.3% | inhibition [4] 10.1% | residual activity [5] 73% | residual activity [6] 100% | residual activity [7] 82% | residual activity [8] 95% | residual activity [9] 100% | residual activity [10] 99% | residual activity [11] 86% | residual activity [12] 92% | residual activity [13] 97% | residual activity [14] 95% | residual activity [15] 100% | residual activity [16] 97% | residual activity [17] 100% | residual activity [18] 100% | inhibition [19] 9.77% | residual activity [20] 88% | residual activity [21] 83% | residual activity [22] 100% | residual activity [23] 75% | residual activity [24] 100% | residual activity [25] 77% | residual activity [26] 67% | residual activity [27] 87% | residual activity [28] 100% | residual activity [29] 81% | residual activity [30] 90% | residual activity [31] 94% | residual activity [32] 77% | residual activity [33] 82% | residual activity [34] 100% | residual activity [35] 95% | residual activity [36] 99% | residual activity [37] 81% | residual activity [38] 100% | residual activity [39] 95%

O=C(Nc1ccc(Oc2ccc(F)cc2)cc1)N1CCc2ncccc2[C@H]1c1ccc(F)cc1 [BAY-897]
inactive: residual activity [1] 78% | inhibition [2] -1.7% | inhibition [3] -7.28% | inhibition [4] 29.1% | residual activity [5] 70% | residual activity [6] 100% | residual activity [7] 76% | residual activity [8] 95% | residual activity [9] 91% | residual activity [10] 100% | residual activity [11] 94% | residual activity [12] 98% | residual activity [13] 95% | residual activity [14] 100% | residual activity [15] 100% | residual activity [16] 87% | residual activity [17] 96% | residual activity [18] 96% | inhibition [19] 7.16% | residual activity [20] 90% | residual activity [21] 100% | residual activity [22] 100% | residual activity [23] 65% | residual activity [24] 74% | residual activity [25] 100% | residual activity [26] 64% | residual activity [27] 72% | residual activity [28] 100% | residual activity [29] 86% | residual activity [30] 93% | residual activity [31] 94% | residual activity [32] 85% | residual activity [33] 100% | residual activity [34] 77% | residual activity [35] 94% | residual activity [36] 90% | residual activity [37] 91% | residual activity [38] 100% | residual activity [39] 100%

— ChEMBL document CHEMBL4507317, “Data for DCP probe BAY-899” (2021)
